The values that follow come from ChEMBL document CHEMBL5096219, “Design, synthesis and biological evaluation of novel pyrazinone derivatives as PI3K/HDAC dual inhibitors” (Bioorg Med Chem, 2022).

Assay [1] concerns the target T1, Protein deacetylase HDAC6 (Homo sapiens) (UniProt Q9UBN7).
T1 sequence (whole entry): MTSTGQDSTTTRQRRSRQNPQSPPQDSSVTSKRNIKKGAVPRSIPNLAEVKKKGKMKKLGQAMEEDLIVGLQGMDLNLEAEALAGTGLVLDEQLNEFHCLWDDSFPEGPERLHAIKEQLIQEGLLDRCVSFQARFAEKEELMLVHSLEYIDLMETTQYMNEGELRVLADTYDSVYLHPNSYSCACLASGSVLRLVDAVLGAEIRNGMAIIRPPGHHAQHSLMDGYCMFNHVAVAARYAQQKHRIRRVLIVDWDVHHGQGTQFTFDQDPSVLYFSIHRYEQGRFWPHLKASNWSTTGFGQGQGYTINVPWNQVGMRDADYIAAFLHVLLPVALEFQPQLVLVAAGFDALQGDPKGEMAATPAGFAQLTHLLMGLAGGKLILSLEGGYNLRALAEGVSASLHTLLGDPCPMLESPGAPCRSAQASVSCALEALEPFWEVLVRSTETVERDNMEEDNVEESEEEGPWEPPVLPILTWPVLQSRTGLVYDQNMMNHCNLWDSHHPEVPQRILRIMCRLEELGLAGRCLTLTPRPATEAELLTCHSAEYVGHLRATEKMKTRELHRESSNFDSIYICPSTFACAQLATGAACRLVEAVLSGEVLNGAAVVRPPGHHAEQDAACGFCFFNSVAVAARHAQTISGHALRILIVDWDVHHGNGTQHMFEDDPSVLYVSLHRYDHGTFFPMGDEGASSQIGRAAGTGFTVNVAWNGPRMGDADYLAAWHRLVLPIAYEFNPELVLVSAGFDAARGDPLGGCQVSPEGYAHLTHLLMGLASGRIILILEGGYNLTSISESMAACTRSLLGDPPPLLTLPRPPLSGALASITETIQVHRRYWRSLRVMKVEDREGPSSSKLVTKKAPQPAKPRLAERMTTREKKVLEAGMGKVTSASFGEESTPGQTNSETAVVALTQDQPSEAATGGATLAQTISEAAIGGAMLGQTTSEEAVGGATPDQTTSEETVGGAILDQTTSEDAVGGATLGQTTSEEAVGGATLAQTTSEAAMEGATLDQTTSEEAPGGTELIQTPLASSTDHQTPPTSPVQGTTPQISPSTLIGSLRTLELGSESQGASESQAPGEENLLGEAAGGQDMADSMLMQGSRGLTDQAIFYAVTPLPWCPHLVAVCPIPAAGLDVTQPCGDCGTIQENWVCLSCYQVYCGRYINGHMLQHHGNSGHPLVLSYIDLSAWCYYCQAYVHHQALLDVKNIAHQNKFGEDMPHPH
As to conditions: dose 100.0 nM.
Description: Inhibition of HDAC6 (unknown origin) at 100 nM

Assay [2] addresses T2, Protein deacetylase HDAC6 (Homo sapiens, UniProt Q9UBN7).
T2 sequence (Q9UBN7 whole entry): T1 sequence (whole entry)
The assay is described as follows: Inhibition of HDAC6 (unknown origin).

Assay [3] has as its system MV4-11. The assay is described as follows: Induction of cell cycle arrest in human MV4-11 cells assessed as accumulation of cells at S phase at 1 uM incubated for 48 hrs by […]PI staining based flow cytometry (reference value: 45.5%). It is filed as functional.
The test system of assay [4] is MV4-11. Briefly: Induction of apoptosis in human MV4-11 cells assessed as viable cells at 1 uM incubated for 48 hrs by Annexin V-FITC/PI staining based flow cytometry (reference value: 96.5%). It is filed as functional. To be noted: read-out: Activity.
Assay [5] deals with MV4-11. Briefly: Induction of apoptosis in human MV4-11 cells assessed as late apoptotic cells at 1 uM incubated for 48 hrs by Annexin V-FITC/PI staining based flow cytometry (reference value: 2.04%). It is filed as functional. A general note: A flow cytometer gives signals particle by particle.
Assay [6] deals with MV4-11. Briefly: Induction of cell cycle arrest in human MV4-11 cells assessed as accumulation of cells at G2/M phase at 1 uM incubated for 48 hrs by […]PI staining based flow cytometry (reference value: 11.5%). It is filed as functional.
Assay [7] deals with MV4-11. The assay is described as follows: Induction of cell cycle arrest in human MV4-11 cells assessed as accumulation of cells at G0/G1 phase at 1 uM incubated for 48 hrs by […]PI staining based flow cytometry (reference value: 33.1%). It is filed as functional.
Assay [8] relates to MV4-11. Briefly: Induction of apoptosis in human MV4-11 cells assessed as early apoptotic cells at 1 uM incubated for 48 hrs by Annexin V-FITC/PI staining based flow cytometry (reference value: 0.95%). It is filed as functional.
Assay [9] concerns MV4-11. Briefly: Induction of apoptosis in human MV4-11 cells assessed as necrotic cells at 1 uM incubated for 48 hrs by Annexin V-FITC/PI staining based flow cytometry (reference value: 0.51%). It is filed as functional.
The next assay has as its system HL-60. Briefly: cells. The assay is classed as functional, cell-based. To be noted: Homo sapiens, HL-60, 72 h.
The subject of the next assay is K562. The assay is described as follows: cells. As to conditions: Homo sapiens, K562, 72 h. The assay is classed as functional, cell-based.
Assay [10] concerns MV4-11. The assay is described as follows: cells. It is filed as functional, cell-based. To be noted: Homo sapiens, MV4-11, 72 h.
Description: Antiproliferative activity against human MV4-11 cells assessed as inhibition of cell proliferation incubated for 72 hrs by CCK8 assay
The target of assay [11] is Phosphatidylinositol 4,5-bisphosphate 3-kinase catalytic subunit alpha isoform (Homo sapiens, UniProt P42336). The assay is described as follows: Inhibition of PI3Kalpha (unknown origin) by mobility shift assay.
Sequence of Phosphatidylinositol 4,5-bisphosphate 3-kinase catalytic subunit alpha isoform (P42336 whole entry, canonical isoform): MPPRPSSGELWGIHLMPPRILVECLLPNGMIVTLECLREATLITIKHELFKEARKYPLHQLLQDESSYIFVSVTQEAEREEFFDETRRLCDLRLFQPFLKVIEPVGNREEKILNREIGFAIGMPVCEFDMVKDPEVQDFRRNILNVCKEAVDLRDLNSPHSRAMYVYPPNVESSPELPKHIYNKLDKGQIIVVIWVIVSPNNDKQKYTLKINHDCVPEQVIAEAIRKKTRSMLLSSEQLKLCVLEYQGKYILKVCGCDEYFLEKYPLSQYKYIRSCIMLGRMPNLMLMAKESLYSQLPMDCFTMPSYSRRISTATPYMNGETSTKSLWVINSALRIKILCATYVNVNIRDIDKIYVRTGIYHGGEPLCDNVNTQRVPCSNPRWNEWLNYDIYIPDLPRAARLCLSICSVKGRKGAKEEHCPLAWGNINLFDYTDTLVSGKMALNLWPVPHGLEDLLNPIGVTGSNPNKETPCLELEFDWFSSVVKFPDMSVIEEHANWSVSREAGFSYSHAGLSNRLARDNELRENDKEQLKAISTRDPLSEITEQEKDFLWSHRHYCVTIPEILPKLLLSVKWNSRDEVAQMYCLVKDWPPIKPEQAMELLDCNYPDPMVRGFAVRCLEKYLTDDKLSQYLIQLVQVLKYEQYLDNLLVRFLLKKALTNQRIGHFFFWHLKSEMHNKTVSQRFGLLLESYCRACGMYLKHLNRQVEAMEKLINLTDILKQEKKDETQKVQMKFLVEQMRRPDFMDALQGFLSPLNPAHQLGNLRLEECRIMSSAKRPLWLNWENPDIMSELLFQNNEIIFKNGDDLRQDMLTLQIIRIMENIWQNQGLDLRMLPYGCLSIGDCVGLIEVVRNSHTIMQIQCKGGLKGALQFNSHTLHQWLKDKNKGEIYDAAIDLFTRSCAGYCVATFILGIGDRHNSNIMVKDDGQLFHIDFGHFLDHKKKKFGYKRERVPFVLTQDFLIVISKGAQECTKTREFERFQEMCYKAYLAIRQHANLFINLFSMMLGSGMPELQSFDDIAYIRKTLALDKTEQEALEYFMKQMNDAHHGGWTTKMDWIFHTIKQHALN

Description for HL-60: Antiproliferative activity against human HL-60 cells assessed as inhibition of cell proliferation incubated for 72 hrs by CCK8 assay
Description for K562: Antiproliferative activity against human K562 cells assessed as inhibition of cell proliferation incubated for 72 hrs by CCK8 assay

Usually inhibition stands for the change of the read-out against control, counted positive when it falls. Usually IC50 stands for the midpoint of a concentration-inhibition curve. In the case of `Nc1ncc(-c2cc(N3CCOCC3)c(=O)n(Cc3ccc(C(=O)NO)cc3)n2)cn1`, in [1], the inhibition is 94%. Also, in [2], the IC50 was 13 nM.

Consider `O=C(CCCCCCC(=O)Nc1ccccc1)NO` [VORINOSTAT], for which the Activity in the assay on MV4-11 [3] was determined as 5.62%; in the assay with MV4-11 [5], 12.9%; with MV4-11 [6], 28.6%; in the assay with MV4-11 [7], 43.2%; in the assay on MV4-11 [8] it was 9.99%; in the assay on MV4-11 [9] it was 0.93%. Moreover, the viability at 1 µM in the assay on MV4-11 [4] was determined as 76.1%.

As to `O=C(NO)c1ccc(Cn2cc(-c3cn[nH]c3)nc(N3CCOCC3)c2=O)cc1`, the IC50 in assay [2] was determined as 30 nM.

As to `CN1CCN(c2nc(-c3cnc(N)nc3)cn(Cc3ccc(C(=O)NO)cc3)c2=O)CC1`, the IC50 in [2] was 4.2 nM.

For `Nc1ccc(-c2cn(Cc3ccc(C(=O)NO)cc3)c(=O)c(N3CCOCC3)n2)cn1`, in [1], the inhibition was determined as 91%. The molecule further showed an IC50 in assay [2] of 12 nM.

Take `Nc1cc(C(F)(F)F)c(-c2cc(N3CCOCC3)nc(N3CCOCC3)n2)cn1` [BUPARLISIB]: the Activity is listed as 34.7% in the assay on MV4-11 [3]; 6.42% in the assay on MV4-11 [5]; 9.96% in the assay with MV4-11 [6]; 48.1% in the assay on MV4-11 [7]; 1.37% with MV4-11 [8]; 3.19% with MV4-11 [9]. In the assay with MV4-11 [4], the viability at 1 µM was 89%. In addition, the IC50 in the assay on HL-60 turned out to be 1510 nM; with K562, 730 nM; in the assay with MV4-11 [10], 730 nM.

With `O=C(NO)c1ccc(Cn2cc(-c3ccc(O)cc3)nc(N3CCOCC3)c2=O)cc1`, the inhibition in assay [1] was 94%. The same molecule registered an IC50 in [2] of 14 nM.

For `Nc1ncc(-c2cn(Cc3ccc(C(=O)NO)cc3)c(=O)c(N3CCCCC3)n2)cn1`, inhibition in assay [2] was half-maximal at 4.2 nM (IC50).

With `O=C(NO)c1ccc(Cn2cc(-c3ccc(CO)cc3)nc(N3CCOCC3)c2=O)cc1`, the IC50 in assay [2] came to 15 nM.

Consider `Cn1cc(-c2cn(Cc3ccc(C(=O)NO)cc3)c(=O)c(N3CCOCC3)n2)cn1`, for which the IC50 in assay [2] is 21 nM.

Regarding `O=C(NO)c1ccc(Cn2cc(-c3cccc(O)c3)nc(N3CCOCC3)c2=O)cc1`, the inhibition in assay [1] stood at 94%. The IC50 with HL-60 was determined as 1140 nM; in the assay on K562, 3840 nM; in the assay with MV4-11 [10], 90 nM; in [11], 467 nM; in assay [2], 23 nM.

Turning to `CNc1ncc(-c2cn(Cc3ccc(C(=O)NO)cc3)c(=O)c(N3CCOCC3)n2)cn1`, the IC50 was 4290 nM in the assay with HL-60; 6120 nM in the assay on K562; 1370 nM in the assay on MV4-11 [10]; 336 nM in [11]; 9.1 nM in assay [2].

Turning to `O=C(NO)c1ccc(Cn2cc(-c3cncnc3)nc(N3CCOCC3)c2=O)cc1`, the inhibition in assay [1] was found to be 69%. Moreover, in [2], half-maximal inhibition (IC50) required 35 nM.

With `Nc1ncc(-c2cn(CCCCCCC(=O)NO)c(=O)c(N3CCOCC3)n2)cn1`, in assay [1], the inhibition worked out at 73%. The IC50 was 18400 nM with HL-60; 3840 nM with K562; 1980 nM in the assay with MV4-11 [10]; 127 nM in [11]; 54 nM in assay [2].

In the case of `Nc1ncc(-c2cc(N3CCOCC3)c(=O)n(Cc3ccc(C(=O)NO)cc3)c2)cn1`, the inhibition in [1] was 95%. Half-maximal inhibition in assay [2] (IC50) was put at 20 nM.

In [2], `O=C(NO)c1ccc(Cn2cc(-c3ccoc3)nc(N3CCOCC3)c2=O)cc1` came in with an IC50 of 7.9 nM.

`Cc1noc(C)c1-c1cn(Cc2ccc(C(=O)NO)cc2)c(=O)c(N2CCOCC2)n1` returned an IC50 in [2] of 32 nM.

Take `O=C(NO)c1ccc(Cn2cc(-c3cccc(CO)c3)nc(N3CCOCC3)c2=O)cc1`: the IC50 in the assay on HL-60 turned out to be 580 nM; in the assay with K562 it was 590 nM; in the assay on MV4-11 [10], 70 nM; in [2], 14 nM.

Regarding `Nc1ncc(-c2cn(Cc3ccc(C(=O)NO)cc3)c(=O)c(Nc3ccccc3)n2)cn1`, in [2], the IC50 was found to be 6.9 nM.

On to `Nc1ncc(-c2cn(CCCCCC(=O)NO)c(=O)c(N3CCOCC3)n2)cn1`, for which the inhibition in assay [1] stood at 45%. Moreover, the IC50 was 12700 nM with HL-60; above 50000 nM with K562; 19700 nM in the assay with MV4-11 [10]; 157 nM in [11]; 109 nM in assay [2].

For `CCCn1cc(-c2cnc(N)nc2)nc(N2CCOCC2)c1=O`, in [11], the IC50 amounted to 25 nM.

Regarding `Nc1ccc(-c2cn(Cc3ccc(C(=O)NO)cc3)c(=O)c(N3CCOCC3)n2)cc1`, the inhibition in [1] came out at 101%. In assay [2], this molecule yielded an IC50 of 13 nM.

On to `Nc1ncc(-c2cn(CCCCCCCC(=O)NO)c(=O)c(N3CCOCC3)n2)cn1`, for which the inhibition in assay [1] was determined as 27%. The IC50 in the assay with HL-60 was determined as 9870 nM; in the assay with K562, 4560 nM; in the assay on MV4-11 [10] it was 1520 nM; in assay [11], 278 nM; in [2], 194 nM.

In the case of `O=C(NO)c1ccc(Cn2cc(-c3cccnc3)nc(N3CCOCC3)c2=O)cc1`, the inhibition in assay [1] turned out to be 92%. In addition, in assay [2], the midpoint of inhibition, the IC50, lay at 15 nM.

Molecule `Nc1ncc(-c2cn(Cc3cccc(C(=O)NO)c3)c(=O)c(N3CCOCC3)n2)cn1` returned a concentration for half-maximal inhibition (IC50) in [2] of 650 nM.

For `COC1CCN(c2nc(-c3cnc(N)nc3)cn(Cc3ccc(C(=O)NO)cc3)c2=O)CC1`, in assay [2], inhibition was half-maximal at 7.4 nM (IC50).

On to `Nc1ncc(-c2cn(Cc3ccc(C(=O)NO)cc3)c(=O)c(N3CCOCC3)n2)cn1`, for which the inhibition in assay [1] came out at 92%. Besides, the IC50 in the assay on HL-60 came out at 21000 nM; with K562, 13800 nM; in the assay with MV4-11 [10], 4850 nM; in assay [11], 197 nM; in [2], 15 nM.
